Data published in patent US9938281B2 (Merck Sharp & Dohme Corp., priority 2012, dated 2018).

Assays:
[1] = molecular target: T1, PI3K-delta (Homo sapiens, UniProt O00329); experiment: HTRF PI3K biochemical assay, delta isoform; details: form screened (neutral or TFA salt) given, read-out: PI3Kdelta IC50
T1 construct: purchased Upstate; Millipore 14-604

[2] = molecular target: T2, PI3K-alpha (Homo sapiens, UniProt P42336); experiment: HTRF PI3K biochemical assay, alpha isoform; details: ratio PI3K-alpha IC50 value / PI3K-delta IC50 value
T2 construct: purchased Upstate; Millipore 14-602
T2 sequence (P42336 whole entry, canonical isoform): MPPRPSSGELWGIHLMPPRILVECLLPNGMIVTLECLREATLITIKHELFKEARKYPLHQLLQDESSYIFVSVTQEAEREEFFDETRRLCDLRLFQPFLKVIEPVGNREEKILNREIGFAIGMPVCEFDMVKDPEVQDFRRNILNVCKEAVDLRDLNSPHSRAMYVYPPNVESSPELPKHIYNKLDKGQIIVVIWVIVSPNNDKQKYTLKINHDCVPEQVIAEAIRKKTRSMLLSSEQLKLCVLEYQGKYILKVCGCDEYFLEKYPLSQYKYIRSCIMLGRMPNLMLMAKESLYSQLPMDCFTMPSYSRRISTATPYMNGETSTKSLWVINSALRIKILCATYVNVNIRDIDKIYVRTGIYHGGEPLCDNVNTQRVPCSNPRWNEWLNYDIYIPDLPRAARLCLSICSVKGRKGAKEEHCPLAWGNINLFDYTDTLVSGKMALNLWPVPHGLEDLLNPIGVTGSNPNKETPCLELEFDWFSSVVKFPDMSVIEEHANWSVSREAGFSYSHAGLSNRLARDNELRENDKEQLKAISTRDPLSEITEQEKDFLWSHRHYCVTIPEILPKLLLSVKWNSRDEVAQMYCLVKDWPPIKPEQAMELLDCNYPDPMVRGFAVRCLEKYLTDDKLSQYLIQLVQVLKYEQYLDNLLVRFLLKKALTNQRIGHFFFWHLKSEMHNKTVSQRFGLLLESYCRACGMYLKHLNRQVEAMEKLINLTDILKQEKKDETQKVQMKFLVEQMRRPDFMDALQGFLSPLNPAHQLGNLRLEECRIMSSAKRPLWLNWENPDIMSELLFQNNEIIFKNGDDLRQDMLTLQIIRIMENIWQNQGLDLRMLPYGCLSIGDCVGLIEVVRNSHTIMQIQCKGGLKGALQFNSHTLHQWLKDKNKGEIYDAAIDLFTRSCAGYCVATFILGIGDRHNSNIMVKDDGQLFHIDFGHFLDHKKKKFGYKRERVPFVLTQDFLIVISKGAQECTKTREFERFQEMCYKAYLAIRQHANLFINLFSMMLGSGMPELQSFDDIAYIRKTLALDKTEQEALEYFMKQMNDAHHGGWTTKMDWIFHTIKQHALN
T2 sequence (P27986 whole entry partner, canonical isoform): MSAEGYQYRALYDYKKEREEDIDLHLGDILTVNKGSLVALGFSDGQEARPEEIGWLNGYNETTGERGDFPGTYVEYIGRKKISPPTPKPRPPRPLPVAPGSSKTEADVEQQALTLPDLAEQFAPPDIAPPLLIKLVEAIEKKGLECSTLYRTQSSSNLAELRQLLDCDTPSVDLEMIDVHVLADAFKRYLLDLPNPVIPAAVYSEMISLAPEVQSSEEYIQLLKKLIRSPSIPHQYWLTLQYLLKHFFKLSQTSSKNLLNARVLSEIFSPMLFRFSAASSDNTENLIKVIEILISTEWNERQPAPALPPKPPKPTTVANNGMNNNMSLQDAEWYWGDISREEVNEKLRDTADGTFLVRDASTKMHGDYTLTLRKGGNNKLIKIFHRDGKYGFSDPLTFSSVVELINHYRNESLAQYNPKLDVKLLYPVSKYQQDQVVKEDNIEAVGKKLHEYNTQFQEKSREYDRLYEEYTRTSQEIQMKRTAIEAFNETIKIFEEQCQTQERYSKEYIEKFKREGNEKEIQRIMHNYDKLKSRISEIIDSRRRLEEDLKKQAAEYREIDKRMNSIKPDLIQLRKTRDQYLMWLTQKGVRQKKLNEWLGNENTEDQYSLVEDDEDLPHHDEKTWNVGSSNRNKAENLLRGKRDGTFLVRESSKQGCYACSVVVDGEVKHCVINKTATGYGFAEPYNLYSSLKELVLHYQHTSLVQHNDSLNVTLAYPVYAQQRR

T1 sequence (O00329 whole entry, canonical isoform): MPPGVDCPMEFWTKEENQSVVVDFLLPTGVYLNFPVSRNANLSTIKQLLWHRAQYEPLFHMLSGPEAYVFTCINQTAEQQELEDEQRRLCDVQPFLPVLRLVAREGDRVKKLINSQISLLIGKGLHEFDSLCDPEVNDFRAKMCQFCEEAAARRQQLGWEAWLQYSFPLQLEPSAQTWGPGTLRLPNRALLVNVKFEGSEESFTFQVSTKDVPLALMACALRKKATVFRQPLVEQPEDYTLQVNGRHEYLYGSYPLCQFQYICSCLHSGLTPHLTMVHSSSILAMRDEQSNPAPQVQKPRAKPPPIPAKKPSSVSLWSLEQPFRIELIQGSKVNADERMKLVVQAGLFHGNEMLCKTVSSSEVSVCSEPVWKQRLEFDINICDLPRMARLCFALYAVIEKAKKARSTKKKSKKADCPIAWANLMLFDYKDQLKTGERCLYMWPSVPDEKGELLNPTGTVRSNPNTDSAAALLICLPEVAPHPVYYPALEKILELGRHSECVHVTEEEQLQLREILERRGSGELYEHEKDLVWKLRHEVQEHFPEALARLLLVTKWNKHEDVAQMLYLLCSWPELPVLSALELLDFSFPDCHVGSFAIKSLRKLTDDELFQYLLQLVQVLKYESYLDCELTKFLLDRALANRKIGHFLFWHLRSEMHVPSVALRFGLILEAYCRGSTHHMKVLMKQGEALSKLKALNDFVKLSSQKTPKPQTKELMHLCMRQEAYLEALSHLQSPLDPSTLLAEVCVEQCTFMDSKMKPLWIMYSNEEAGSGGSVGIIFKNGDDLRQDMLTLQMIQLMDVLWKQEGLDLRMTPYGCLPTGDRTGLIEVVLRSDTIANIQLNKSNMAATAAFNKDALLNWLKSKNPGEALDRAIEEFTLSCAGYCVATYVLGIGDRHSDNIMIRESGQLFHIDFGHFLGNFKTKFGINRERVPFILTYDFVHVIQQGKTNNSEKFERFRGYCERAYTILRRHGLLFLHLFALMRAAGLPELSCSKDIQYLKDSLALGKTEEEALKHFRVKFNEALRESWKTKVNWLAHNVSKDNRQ
T1 sequence (P27986 whole entry partner, canonical isoform): as the sequence (P27986 whole entry partner, canonical isoform) above

SMILES | IC50 [1] | Selectivity versus PI3Kalpha [2]
CCn1c(-c2cnc(C)nc2)nc2c(N[C@H]3CCN(C(=O)C4CN(C(C)C)C4)C3)ncnc21 [Compound 2-79, 9-ethyl-N-[(3S)-1-{[1-(1-methylethyl)azetidin-3-yl]carbonyl}pyrrolidin-3-yl]-8-(2-methylpyrimidin-5-yl)-9H-purin-6-amine] | 17 nM | >10
CCn1c(-c2cnc(C)nc2)nc2c(N[C@H]3CCN(C(=O)c4cncn4C)C3)ncnc21 [Compound 2-69, [(3S)-3-{[9-ethyl-8-(2-methylpyrimidin-5-yl)-9H-purin-6-yl]amino}pyrrolidin-1-yl](1-methyl-1H-imidazol-5-yl)methanone] | 3.8 nM | >10
CCn1c(-c2cnc(C)nc2)nc2c(N[C@H]3CCN(C(=O)C4CCNCC4)C3)ncnc21 [Compound 2-78, 9-ethyl-8-(2-methylpyrimidin-5-yl)-N-[(3S)-1-(piperidin-4-ylcarbonyl)pyrrolidin-3-yl]-9H-purin-6-amine] | 4.6 nM | >10
CCn1ncc(-c2nc3c(N[C@H]4CCN(C(=O)C5CCOC(C)(C)C5)C4)ncnc3n2C)c1C (stereo partly drawn) [Compound 2-6, N-{(3S)-1-[(2,2-dimethyltetrahydro-2H-pyran-4-yl)carbonyl]pyrrolidin-3-yl}-8-(1-ethyl-5-methyl-1H-pyrazol-4-yl)-9-methyl-9H-purin-6-amine] | 1.6 nM | >10
CCn1c(-c2cnc(C)nc2)nc2c(N[C@H]3CCN(C(=O)[C@H]4CC[C@H](O)CC4)C3)ncnc21 [Compound 2-99, trans-4-{[(3S)-3-{[9-ethyl-8-(2-methylpyrimidin-5-yl)-9H-purin-6-yl]amino}pyrrolidin-1-yl]carbonyl}cyclohexanol] | 2.8 nM | >10
CCn1c(-c2cnc(C)nc2)nc2c(NC3CN(C(=O)C4CC4)CC3O)ncnc21 (single isomer, unassigned) [Compound 2-97, 1-(cyclopropylcarbonyl)-4-{(3R,4R) or (3S,4S)-[9-ethyl-8-(2-methylpyrimidin-5-yl)-9H-purin-6-yl]amino}pyrrolidin-3-ol] | 2.9 nM | >10
CCn1ncc(-c2nc3c(NC4CN(C(=O)OC(C)(C)C)C4)ncnc3n2C)c1C [Compound 1-10, tert-butyl 3-((8-(1-ethyl-5-methyl-1H-pyrazol-4-yl)-9-methyl-9H-purin-6-yl)amino)azetidine-1-carboxylate] | 15 nM | >10
CCn1ncc(-c2nc3c(N[C@H]4CCN(C(=O)OC(C)(C)C)C4)ncnc3n2C)c1C [Compound 1-2, tert-butyl (3S)-3-{[8-(1-ethyl-5-methyl-1H-pyrazol-4-yl)-9-methyl-9H-purin-6-yl]amino}pyrrolidine-1-carboxylate] | 1.8 nM | >10
CCn1c(-c2cnc(C)nc2)nc2c(N[C@H]3C[C@H](C(=O)O)N(C(=O)OC(C)(C)C)C3)ncnc21 [Compound 1-18, (4S)-1-(tert-butoxycarbonyl)-4-{[9-ethyl-8-(2-methylpyrimidin-5-yl)-9H-purin-6-yl]amino}-D-proline] | 2 nM | >10

More lines, now with the values ahead:

IC50 [1] | Selectivity versus PI3Kalpha [2] | SMILES
42 nM | >10 | CCCN1CC[C@H](Nc2ncnc3c2nc(-c2cnn(CC)c2C)n3C)C1 [Compound 10-1, 8-(1-ethyl-5-methyl-1H-pyrazol-4-yl)-9-methyl-N-[(3S)-1-propylpyrrolidin-3-yl]-9H-purin-6-amine]
120 nM | >10 | CCn1c(C(F)F)nc2c(N[C@H]3CCN(C(=O)c4cocn4)C3)ncnc21 [Compound 7-16, 8-(difluoromethyl)-9-ethyl-N-[(3S)-1-(1,3-oxazol-4-ylcarbonyl)pyrrolidin-3-yl]-9H-purin-6-amine]
11 nM | >10 | CCn1c(-c2cnc(C)nc2)nc2c(N[C@H]3CC[C@@H](C(=O)N4CCC4)C3)ncnc21 [Compound 5-6, N-[(1S,3R)-3-(azetidin-1-ylcarbonyl)cyclopentyl]-9-ethyl-8-(2-methylpyrimidin-5-yl)-9H-purin-6-amine]
< 1 nM | >10 | CCn1c(-c2cnc(C)nc2)nc2c(N[C@H]3CCN(c4ccccn4)C3)ncnc21 [Compound 4-1, 9-ethyl-8-(2-methylpyrimidin-5-yl)-N-[(3S)-1-pyridin-2-ylpyrrolidin-3-yl]-9H-purin-6-amine]
32 nM | >10 | CCn1c(-c2cnc(C)nc2)nc2c(N[C@H]3CC[C@@H](C(=O)OC)C3)ncnc21 [Compound 5-3, methyl (1R,3S)-3-{[9-ethyl-8-(2-methylpyrimidin-5-yl)-9H-purin-6-yl]amino}cyclopentanecarboxyl-ate]
1.2 nM | >10 | CCn1c(-c2ccc(C(F)(F)F)cc2)nc2c(N[C@H]3CCN(C(=O)C4CC4)C3)ncnc21 [Compound 3-30, N-[(3S)-1-(cyclopropylcarbonyl)pyrrolidin-3-yl]-9-ethyl-8-[4-(trifluoromethyl)phenyl]-9H-purin-6-amine]
190 nM | >10 | CCn1c(COC)nc2c(N[C@H]3CCN(C(=O)C4CC4)C3)ncnc21 [Compound 7-8, N-[(3S)-1-(cyclopropylcarbonyl)pyrrolidin-3-yl]-9-ethyl-8-(methoxymethyl)-9H-purin-6-amine]
20 nM | >10 | CCn1c(-c2cnc(C)nc2)nc2c(N[C@H]3C[C@H](C(=O)N[C@@H](C)C(C)C)N(C(=O)C4CC4)C3)ncnc21 [Compound 15-6, (4S)-1-(cyclopropylcarbonyl)-N-[(1S)-1,2-dimethylpropyl]-4-{[9-ethyl-8-(2-methylpyrimidin-5-yl)-9H-purin-6-yl]amino}-D-prolinamide]
21 nM | >10 | CCCN1CC(Nc2ncnc3c2nc(-c2cnc(C)nc2)n3CC)CCC1=O (racemic) [Compound 14-5, 5(S and R)-{[9-ethyl-8-(2-methylpyrimidin-5-yl)-9H-purin-6-yl]amino}-1-propylpiperidin-2-one]
5.1 nM | >10 | CCn1c(C(=O)NCC(F)(F)F)nc2c(N[C@H]3CCN(C(=O)N4CC(OC)C4)C3)ncnc21 [Compound 12-27, 9-ethyl-6-({(3S)-1-[(3-methoxyazetidin-1-yl)carbonyl]pyrrolidin-3-yl}amino)-N-(2,2,2-trifluoroethyl)-9H-purine-8-carboxamide]
39 nM | >10 | CCn1c(-c2cnc(C)nc2)nc2c(N[C@H]3C[C@H](c4nnc(C)o4)N(C(=O)C4CC4)C3)ncnc21 [Compound 15-14, N-[(3S,5R)-1-(cyclopropylcarbonyl)-5-(5-methyl-1,3,4-oxadiazol-2-yl)pyrrolidin-3-yl]-9-ethyl-8-(2-methylpyrimidin-5-yl)-9H-purin-6-amine]
12 nM | >10 | CCn1c(-c2cnc(C)nc2)nc2c(NC3CCCC(NC(=O)c4cocn4)C3)ncnc21 (single isomer, unassigned) [Compound 5-8, N-(1S,3S or 1R,3R)-(3-{[9-ethyl-8-(2-methylpyrimidin-5-yl)-9H-purin-6-yl]amino}cyclohexyl)-1,3-oxazole-4-carboxamide]
15 nM | >10 | CCn1c(-c2cnc(C)nc2)nc2c(N[C@H]3C[C@H](C(=O)NC(C)C)N(C(=O)C4CC4)C3)ncnc21 [Compound 15-4, (4S)-1-(cyclopropylcarbonyl)-4-{[9-ethyl-8-(2-methylpyrimidin-5-yl)-9H-purin-6-yl]amino}-N-(1-methylethyl)-D-prolinamide]
3.4 nM | >10 | CCn1c(-c2cnc(C)nc2)nc2c(NC3CN(C(=O)C4CC4)CC3F)ncnc21 (single isomer, unassigned) [Compound 3-21, N-[(3R,4R or 3S,4S)-1-(cyclopropylcarbonyl)-4-fluoropyrrolidin-3-yl]-9-ethyl-8-(2-methylpyrimidin-5-yl)-9H-purin-6-amine]
20 nM | >10 | CCn1c(C(=O)NCC2CC2)nc2c(N[C@H]3CCN(C(=O)C4CC4)C3)ncnc21 [Compound 6-1, 6-{[(3S)-1-(cyclopropylcarbonyl)pyrrolidin-3-yl]amino}-N-(cyclopropylmethyl)-9-ethyl-9H-purine-8-carboxamide]
1.6 nM | >10 | CCn1c(-c2cnc(C)nc2)nc2c(N[C@H]3CCN(C(=O)N4CC[C@H](OC)C4)C3)ncnc21 [Compound 12-14]
11 nM | >10 | CCn1c(-n2cnc(C(F)(F)F)c2)nc2c(N[C@H]3CCN(C(=O)C4CC4)C3)ncnc21 [Compound 8-3, N-[(3S)-1-(cyclopropylcarbonyl)pyrrolidin-3-yl]-9-ethyl-8-[4-(trifluoromethyl)-1H-imidazol-1-yl]-9H-purin-6-amine]
100 nM | >10 | CCn1c(CC2CN(S(C)(=O)=O)C2)nc2c(N[C@H]3CCN(C(=O)C4CC4)C3)ncnc21 [Compound 7-25, N-[(3S)-1-(cyclopropylcarbonyl)pyrrolidin-3-yl]-9-ethyl-8-{[1-(methylsulfonyl)azetidin-3-yl]methyl}-9H-purin-6-amine]
13 nM | >10 | CCn1c(-c2cnc(C)nc2)nc2c(N[C@H]3CCN(c4ncccc4C)C3)ncnc21 [Compound 4-10, 9-ethyl-N-[(3S)-1-(3-methylpyridin-2-yl)pyrrolidin-3-yl]-8-(2-methylpyrimidin-5-yl)-9H-purin-6-amine]
4.6 nM | >10 | CCn1c(-c2cnc(C)nc2)nc2c(N[C@H]3CCN(C(=O)OC4CCS(=O)(=O)C4)C3)ncnc21 (mixture of isomers) [Compound 13-6, (S and R)-1,1-dioxidotetrahydrothiophen-3-yl (3S)-3-{[9-ethyl-8-(2-methylpyrimidin-5-yl)-9H-purin-6-yl]amino}pyrrolidine-l-carboxylate]
